Holding throughout (type): cell-based, Human
For test [1], the system named is SMARCD3 expression. The test can be described thus: Affymetrix GeneChip expression analysis of LNCaP cells, SMARCD3. On the procedure:
(§1) Human prostatic cancer cell lines LNCaP, DU-145, PC-3, and Tsu-prl were obtained from ATCC. LNCaP cancer cells were maintained in humidified atmosphere of 5% CO2 in air in RPMI 1640 medium supplemented with 10% fetal calf serum (Life Technologies, Inc, Rockville, Md.), 3 mM L-glutamine, 100 μg/ml streptomycin and 100 units/ml penicillin. Other lines were maintained in DMEM containing 3 mM L-glutamine, 100 μg/ml streptomycin, 100 units/ml penicillin, and 10% FCS in humidified atmosphere of 5% CO2. To examine the effects of steroids, cells were cultured in RPMI 1640 medium containing 5% FCS treated with dextran coated charcoal (Hyclone, Logan, Utah) for 24 hs before treatment. Cells were grown in the absence or presence of 10 nM DHT for 0, 2, 4, 6, 12, 24, 48, and 72 hs. They were collected and frozen at each time point. Two hundred μl of medium were collected from each flask for PSA assay.
Total RNA was isolated from LNCaP cells using the Qiagen Rneasy Midi Kit following the manufacturer's recommendations. For polyA (+) selection, the Promega PolyATract kit was used according to manufacturer's procedures. Briefly, LNCaP cells were collected by centrifugation and the RNA isolated using the buffers and recommended procedures from the Qiagen kit. Following RNA extraction, all samples were frozen at −80° C. One microgram of poly A(+) RNA was used as template for synthesis of double-stranded cDNA using the GibcoBRL cDNA synthesis kit, with an oligo dT primer incorporating a T7 RNA polymerase promoter (10 minutes at 70° C. for priming, 65 minutes at 37° C. for first strand synthesis with Superscript II RT, followed by 150 min at 15.8° C. for second strand synthesis with E. coli ligase, E. coli polymerase, and RNAse H). […] The cRNA was purified by SPRI using paramagnetic beads (Bangs Laboratories), and total molar concentration was determined from the absorbance at 260. […]

The test system of test [2] is LNCaP cells. The experiment in a line: Cell growth assay (MTT) of LNCaP cells treated with DHT. On the procedure: as §1
To verify the effect of DHT on the growth of LNCaP cells, cells at 3,000 cells/well were plated in 96-well plates for 24 hs before treatment with DHT. After 72 hs, MTT was added to each well and incubated at 37° C. for four hs. At the end of incubation, the supernatant was removed and 100 μl DMSO was added to each well to dissolve […]. Plates were subsequently read in a plate reader at […].

The subject of test [3] is PSA production. The experiment in a line: PSA ELISA on medium of LNCaP cells treated with DHT. On the procedure:
as §1
Quantification of PSA was performed using an ELISA. Briefly, a 96-well Nunc plate was coated with 100 μl of goat anti-PSA (1 μg/ml, Scripps laboratory, San Diego, Calif.) overnight at 4° C. The plate was washed with water three times and incubated with 100 μl of blocking buffer (PBS, 0.05% Tween 20, 1 μM EDTA, 0.25% BSA, and 0.05% NaN3) for 1 h at room temperature. The plate was washed three times with water and incubated with 1:1 mixture of mouse anti-human PSA and Eu-labeled anti-mouse IgG (10 ng/antibody each/well for 1½ hs at RT). The plate was then washed four times with water. 100 μl of Delfia Enhancement Solution (PerkinElmer Wallac Inc (Norton, Ohio) was added to the plate was read using a Victor reader according to the manufacturer's instruction.
(In general: ELISA stands for enzyme-linked immunosorbent assay.)

Test [4] concerns prostate specific antigen (PSA) expression. The experiment in a line: Affymetrix GeneChip expression analysis of LNCaP cells, PSA. The note with it: 10 nM DHT. On the procedure: as §1
Total RNA was isolated from LNCaP cells using the Qiagen Rneasy Midi Kit following the manufacturer's recommendations. For polyA (+) selection, the Promega PolyATract kit was used according to manufacturer's procedures. […] The cRNA was purified by SPRI using paramagnetic beads (Bangs Laboratories), and total molar concentration was determined from the absorbance at 260. […]

Molecules are shown by their SMILES.

For `C[C@]12CCC(=O)C[C@@H]1CC[C@@H]1[C@@H]2CC[C@]2(C)[C@@H](O)CC[C@@H]12` [DHT], the results for the “decrease in SMARCD3 expression levels” value in test [1] (24 hours post-androgen treatment), in test [1] (48 hours post-treatment) and in test [1] (72 hours post-treatment) were 2 fold, 4 fold and 6 fold, respectively. The “growth effect at the chosen concentration” value in test [2] (10 nM DHT) was “robust growth-stimulatory effect”. The “growth of LNCaP cells” value in test [2] (dose response, 72 hs, MTT) is listed as “stimulated”. The “time at which PSA signal was first detected” value in test [3] (DHT treatment) worked out at 12 h. Further, in test [3] (DHT treatment), the “time of maximal PSA level” value is listed as “about 48 hs”. Besides, the PSA production entry in test [3] (dose response, ELISA) is on record as “increased in a dose-dependent manner”. For the same compound, the “PSA expression increase relative to control” value in test [4] (12 hours) is 3 fold. Besides, the “PSA expression induction relative to control” value in test [4] (72 hours) is “approximately 4 fold”.

The record behind these values is patent publication US20020142327A1, “Expression analysis of smarc nucleic acids and polypeptides useful in the diagnosis and treatment of prostate cancer” (priority 2000, published 2002).
